In data set [1] the target is Voltage-dependent N-type calcium channel subunit alpha-1B (Homo sapiens) (UniProt Q00975). In words: Inhibition of Calcium Channel N-Type at 10 µM in the Eurofins-Panlabs radioligand binding assay (Eurofins_assay_216000). The note with it: Rattus norvegicus; Compound concentration 10.0 uM.
Data set [2] is filed under the species Homo sapiens. In words: Inhibition of Nicotinic Acetylcholine at compound concentration of 10.0 uM in the Eurofins-Panlabs radioligand binding assay (Eurofins_assay_258590). It counts as protein-complex assay. The following applies: Compound concentration 10.0 uM.
In data set [3] the target is Platelet-activating factor receptor (Homo sapiens) (UniProt P25105). In words: Inhibition of Platelet Activating Factor (PAF) at 10 µM in the Eurofins-Panlabs radioligand binding assay (Eurofins_assay_265010). The note with it: Compound concentration 10.0 uM.
Data set [4] deals with ATP-sensitive inward rectifier potassium channel 11 (Cricetulus griseus) (UniProt A0A3L7HHE1). In words: Inhibition of Potassium Channel [KATP] at 10 µM in the Eurofins-Panlabs radioligand binding assay (Eurofins_assay_265600). The note with it: Cricetinae; Compound concentration 10.0 uM.
The target of a further data set is Caspase-1 (Homo sapiens) (UniProt P29466). In words: Inhibition of Peptidase, CASP1 (Caspase 1) at 10 µM in the Eurofins-Panlabs enzyme assay (Eurofins_assay_163000). The following applies: Compound concentration 10.0 uM.
Data set [5] concerns the target Receptor-type tyrosine-protein phosphatase C (Homo sapiens) (UniProt P08575). In words: Inhibition of Protein Tyrosine Phosphatase, PTPRC (CD45) at 10 µM in the Eurofins-Panlabs enzyme assay (Eurofins_assay_190010). The following applies: Compound concentration 10.0 uM.
In data set [6] the target is Alpha-2C adrenergic receptor (Homo sapiens) (UniProt P18825). In words: Adrenergic alpha2C Eurofins-Panlabs radioligand binding assay. On the set-up: ligand concentration 1 nM, non-specific ligand with concentration 10 µM WB-4101, incubation time 60 min, incubation temperature 25 °C. The note with it: Compound concentration 10.0 uM.
In data set [7] the target is C-X-C chemokine receptor type 2 (Homo sapiens) (UniProt P25025). In words: Inhibition of Chemokine CXCR2 (IL-8RB) at 10 µM in the Eurofins-Panlabs radioligand binding assay (Eurofins_assay_244500). The following applies: Compound concentration 10.0 uM.
The target in data set [8] is Adenosine Transporter (Cavia porcellus) (UniProt H0V4R7+H0UUG1+H0V3Z5). In words: Inhibition of Transporter, Adenosine at compound concentration of 10.0 uM in the Eurofins-Panlabs radioligand binding assay (Eurofins_assay_202000). It counts as protein assay. Set-up: ligand concentration 0.5 nM, non-specific ligand with concentration 5 uM Nitrobenzylthioinosine, incubation time 30 min, incubation temperature 25 C. The following applies: Compound concentration 10.0 uM.

Data set [9] concerns the target Cathepsin G (Homo sapiens) (UniProt P08311). In words: Inhibition of Peptidase, CTSG (Cathepsin G) at 10 µM in the Eurofins-Panlabs enzyme assay (Eurofins_assay_112510). The following applies: Compound concentration 10.0 uM. Set-up: substrate with concentration.
The target of data set [10] is Histamine H4 receptor (Homo sapiens) (UniProt Q9H3N8). In words: Histamine H4 Eurofins-Panlabs radioligand binding assay. The note with it: Compound concentration 10.0 uM.
The target in data set [11] is Peroxisome proliferator-activated receptor alpha (Homo sapiens) (UniProt Q07869). In words: PPARalpha Eurofins-Panlabs radioligand binding assay. The following applies: Compound concentration 10.0 uM.
For data set [12], the target named is Thyrotropin-releasing hormone receptor (Homo sapiens) (UniProt P34981). In words: Thyrotropin Releasing Hormone (TRH) Eurofins-Panlabs radioligand binding assay. On the set-up: ligand concentration 3 nM. The following applies: Rattus norvegicus; Compound concentration 10.0 uM.
Data set [13] has as its target Endothelin-converting enzyme 1 (Homo sapiens) (UniProt P42892). In words: Peptidase, Endothelin Converting Enzyme-1 (ECE-1) Eurofins-Panlabs enzyme assay. The note with it: Compound concentration 10.0 uM.
Data set [14] has as its target Macrophage metalloelastase (Homo sapiens) (UniProt P39900). In words: Peptidase, Matrix Metalloproteinase-12 (MMP-12) Eurofins-Panlabs enzyme assay. The note with it: Compound concentration 10.0 uM.
Data set [15] addresses Phosphodiesterase PDE1 (Bos taurus) (UniProt Q01061+P14100+A0A3Q1MCV4). In words: Phosphodiesterase PDE1 Eurofins-Panlabs enzyme assay. It counts as protein assay. Set-up: substrate with concentration [3H] cAMP + cAMP, incubation time 20 min, incubation temperature 25 °C. The note with it: Compound concentration 100.0 uM.
Data set [16] is filed under the species Rattus norvegicus. In words: Adrenergic α1, Non-selective Eurofins-Panlabs radioligand binding assay. It counts as protein assay. The following applies: Compound concentration 10.0 uM.
The species named for data set [17] is Homo sapiens. In words: Cholecystokinin CCK2 (CCKB) Eurofins-Panlabs radioligand binding assay. Set-up: ligand concentration 0.072 nM, non-specific ligand with concentration 1 µM Sincalide, incubation time 3 h, incubation temperature 25 °C. The following applies: Compound concentration 10.0 uM.
The target of data set [18] is Glutamate NMDA receptor; GRIN1/GRIN2A (Homo sapiens) (UniProt Q05586+Q12879). In words: NMDA-NR1a/NR2a Eurofins-Panlabs radioligand binding assay. It counts as protein-complex assay. The note with it: Compound concentration 10.0 uM.
For data set [19], the species on record is Rattus norvegicus. In words: Potassium Channel [KA] Eurofins-Panlabs radioligand binding assay. On the set-up: ligand concentration 0.01 nM. The following applies: Compound concentration 10.0 uM.
Data set [20] has as its target hERG (KCNH2) potassium channel (Homo sapiens, UniProt Q12809). In words: Potassium Channel hERG Eurofins-Panlabs radioligand binding assay. On the set-up: ligand concentration 0.05 nM, non-specific ligand with concentration 1 µM L-706,000, incubation time 75 min, incubation temperature 25 °C. The following applies: HEK-293 cells expressing recombinant human hERG, probe [S35] L-706,000 (radioligand, 0.05 nM), compound concentration 10 uM. (The hERG channel carries a current that helps repolarise heart muscle cells.)

Data set [21] has as its target Activin receptor type-2A (Homo sapiens) (UniProt P27037). The note with it: Compound concentration 1000.0 nM.
The target of data set [22] is Dual specificity protein kinase CLK1 (Homo sapiens) (UniProt P49759). The following applies: Compound concentration 1000.0 nM.
Sequence of Dual specificity protein kinase CLK1 (Homo sapiens) (P49759 whole entry, looked up): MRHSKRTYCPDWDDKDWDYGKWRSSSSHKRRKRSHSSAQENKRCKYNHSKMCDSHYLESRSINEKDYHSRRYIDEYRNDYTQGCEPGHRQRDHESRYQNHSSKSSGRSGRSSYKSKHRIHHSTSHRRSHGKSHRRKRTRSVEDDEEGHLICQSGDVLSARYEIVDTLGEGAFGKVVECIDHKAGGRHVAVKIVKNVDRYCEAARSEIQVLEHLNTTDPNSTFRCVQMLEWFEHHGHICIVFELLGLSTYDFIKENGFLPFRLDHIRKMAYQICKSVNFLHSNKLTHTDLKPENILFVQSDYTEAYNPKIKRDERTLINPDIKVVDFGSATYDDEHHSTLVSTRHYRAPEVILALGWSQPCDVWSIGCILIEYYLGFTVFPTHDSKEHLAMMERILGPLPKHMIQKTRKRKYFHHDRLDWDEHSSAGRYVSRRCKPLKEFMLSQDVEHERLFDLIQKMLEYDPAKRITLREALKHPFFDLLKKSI
For data set [23], the target named is Serine/threonine-protein kinase PAK 6 (Homo sapiens) (UniProt Q9NQU5). The note with it: Compound concentration 1000.0 nM.
Sequence of Serine/threonine-protein kinase PAK 6 (Homo sapiens) (Q9NQU5 whole entry, looked up): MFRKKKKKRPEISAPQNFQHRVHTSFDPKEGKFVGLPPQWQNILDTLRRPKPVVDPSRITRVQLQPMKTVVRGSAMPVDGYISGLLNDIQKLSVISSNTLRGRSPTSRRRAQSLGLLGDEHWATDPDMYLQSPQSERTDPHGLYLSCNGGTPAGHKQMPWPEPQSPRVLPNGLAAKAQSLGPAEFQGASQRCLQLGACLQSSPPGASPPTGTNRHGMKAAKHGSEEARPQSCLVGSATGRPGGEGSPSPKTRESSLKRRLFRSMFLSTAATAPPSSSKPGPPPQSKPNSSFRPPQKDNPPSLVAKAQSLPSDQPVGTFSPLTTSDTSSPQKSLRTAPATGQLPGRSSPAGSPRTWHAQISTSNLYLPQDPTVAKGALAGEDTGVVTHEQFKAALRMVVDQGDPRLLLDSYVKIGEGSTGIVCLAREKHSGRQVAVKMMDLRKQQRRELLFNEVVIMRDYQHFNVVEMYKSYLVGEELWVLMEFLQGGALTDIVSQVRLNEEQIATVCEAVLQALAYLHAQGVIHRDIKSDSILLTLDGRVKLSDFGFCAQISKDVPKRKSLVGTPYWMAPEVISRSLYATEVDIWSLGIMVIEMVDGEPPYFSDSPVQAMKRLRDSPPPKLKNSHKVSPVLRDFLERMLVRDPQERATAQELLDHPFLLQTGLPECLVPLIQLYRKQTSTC
Data set [24] addresses Cyclin-dependent kinase 15 (Homo sapiens) (UniProt Q96Q40). The note with it: Compound concentration 1000.0 nM.
Data set [25] concerns the target Phosphatidylinositol 4,5-bisphosphate 3-kinase catalytic subunit gamma isoform (Homo sapiens) (UniProt P48736). The following applies: Compound concentration 1000.0 nM.
Data set [26] has as its target Ribosomal protein S6 kinase alpha-6 (Homo sapiens) (UniProt Q9UK32). The following applies: Compound concentration 1000.0 nM.
The target of data set [27] is Serine/threonine-protein kinase SIK2 (Homo sapiens) (UniProt Q9H0K1). The following applies: Compound concentration 1000.0 nM.
Sequence of Serine/threonine-protein kinase SIK2 (Homo sapiens) (Q9H0K1 whole entry, looked up): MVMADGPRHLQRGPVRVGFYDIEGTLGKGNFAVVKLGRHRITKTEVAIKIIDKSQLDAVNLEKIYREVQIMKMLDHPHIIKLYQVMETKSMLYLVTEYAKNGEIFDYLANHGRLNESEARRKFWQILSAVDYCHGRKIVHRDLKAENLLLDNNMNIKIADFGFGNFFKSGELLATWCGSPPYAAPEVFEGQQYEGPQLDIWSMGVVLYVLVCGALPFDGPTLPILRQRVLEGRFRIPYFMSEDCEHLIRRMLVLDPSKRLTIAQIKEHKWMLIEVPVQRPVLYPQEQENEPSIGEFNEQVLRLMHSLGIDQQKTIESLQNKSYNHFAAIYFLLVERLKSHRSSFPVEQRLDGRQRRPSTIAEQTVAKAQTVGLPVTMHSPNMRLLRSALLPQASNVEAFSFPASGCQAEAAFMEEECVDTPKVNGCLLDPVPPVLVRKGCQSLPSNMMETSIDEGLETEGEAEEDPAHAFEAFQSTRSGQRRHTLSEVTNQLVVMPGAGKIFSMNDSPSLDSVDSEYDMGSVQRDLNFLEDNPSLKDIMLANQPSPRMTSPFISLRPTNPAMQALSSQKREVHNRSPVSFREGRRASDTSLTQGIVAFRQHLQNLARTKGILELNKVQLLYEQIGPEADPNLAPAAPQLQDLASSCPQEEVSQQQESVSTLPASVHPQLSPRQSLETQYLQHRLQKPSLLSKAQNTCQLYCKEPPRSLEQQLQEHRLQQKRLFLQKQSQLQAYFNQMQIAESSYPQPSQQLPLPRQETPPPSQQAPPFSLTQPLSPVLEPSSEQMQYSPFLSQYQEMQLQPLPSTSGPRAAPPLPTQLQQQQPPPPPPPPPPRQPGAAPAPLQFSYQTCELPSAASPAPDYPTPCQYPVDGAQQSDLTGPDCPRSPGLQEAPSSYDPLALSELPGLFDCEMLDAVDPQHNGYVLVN
Data set [28] has as its target 5-hydroxytryptamine receptor 2B (Homo sapiens) (UniProt P41595). The note with it: Compound concentration 10.0 uM.
Data set [29] deals with D(2) dopamine receptor (Homo sapiens) (UniProt P14416). The following applies: Compound concentration 10.0 uM.
The target of data set [30] is Estrogen receptor (Homo sapiens) (UniProt P03372). The note with it: Compound concentration 10.0 uM.
Data set [31] is filed under the species Rattus norvegicus. The following applies: Compound concentration 10.0 uM.
The target of data set [32] is T1, Muscarinic acetylcholine receptor M4 (Homo sapiens) (UniProt P08173).
T1 sequence (whole entry): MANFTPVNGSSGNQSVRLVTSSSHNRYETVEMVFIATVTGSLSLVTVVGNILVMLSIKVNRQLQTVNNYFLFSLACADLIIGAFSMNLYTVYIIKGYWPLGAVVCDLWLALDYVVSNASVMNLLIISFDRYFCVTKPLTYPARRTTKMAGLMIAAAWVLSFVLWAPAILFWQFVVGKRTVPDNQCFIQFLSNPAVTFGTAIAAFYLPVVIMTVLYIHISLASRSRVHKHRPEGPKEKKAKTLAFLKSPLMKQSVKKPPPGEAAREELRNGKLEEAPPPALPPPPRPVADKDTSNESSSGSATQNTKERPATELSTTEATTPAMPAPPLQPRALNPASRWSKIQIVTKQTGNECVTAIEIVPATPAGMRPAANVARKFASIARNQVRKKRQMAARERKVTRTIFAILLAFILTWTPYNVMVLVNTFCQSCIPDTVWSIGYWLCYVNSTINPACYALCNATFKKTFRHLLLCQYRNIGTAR
The following applies: Compound concentration 10.0 uM.

What is called inhibition is the relative decrease from the control value, in per cent. As a reminder, the residual activity is the activity still measured, relative to the control.

Sequence of Cyclin-dependent kinase 15 (Homo sapiens) (Q96Q40 whole entry, canonical isoform): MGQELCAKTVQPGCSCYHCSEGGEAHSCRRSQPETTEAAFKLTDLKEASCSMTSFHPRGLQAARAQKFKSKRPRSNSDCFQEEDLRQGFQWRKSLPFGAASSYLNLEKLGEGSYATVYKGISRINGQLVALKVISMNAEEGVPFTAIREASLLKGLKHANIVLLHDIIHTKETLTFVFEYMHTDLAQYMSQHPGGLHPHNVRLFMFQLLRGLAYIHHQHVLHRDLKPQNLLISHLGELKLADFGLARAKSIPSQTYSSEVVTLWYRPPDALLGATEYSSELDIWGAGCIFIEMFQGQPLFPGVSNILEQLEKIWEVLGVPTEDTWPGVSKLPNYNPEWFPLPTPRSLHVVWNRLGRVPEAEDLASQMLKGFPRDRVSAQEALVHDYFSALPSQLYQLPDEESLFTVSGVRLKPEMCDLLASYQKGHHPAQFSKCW
Sequence of Phosphatidylinositol 4,5-bisphosphate 3-kinase catalytic subunit gamma isoform (Homo sapiens) (P48736 whole entry, looked up, canonical isoform): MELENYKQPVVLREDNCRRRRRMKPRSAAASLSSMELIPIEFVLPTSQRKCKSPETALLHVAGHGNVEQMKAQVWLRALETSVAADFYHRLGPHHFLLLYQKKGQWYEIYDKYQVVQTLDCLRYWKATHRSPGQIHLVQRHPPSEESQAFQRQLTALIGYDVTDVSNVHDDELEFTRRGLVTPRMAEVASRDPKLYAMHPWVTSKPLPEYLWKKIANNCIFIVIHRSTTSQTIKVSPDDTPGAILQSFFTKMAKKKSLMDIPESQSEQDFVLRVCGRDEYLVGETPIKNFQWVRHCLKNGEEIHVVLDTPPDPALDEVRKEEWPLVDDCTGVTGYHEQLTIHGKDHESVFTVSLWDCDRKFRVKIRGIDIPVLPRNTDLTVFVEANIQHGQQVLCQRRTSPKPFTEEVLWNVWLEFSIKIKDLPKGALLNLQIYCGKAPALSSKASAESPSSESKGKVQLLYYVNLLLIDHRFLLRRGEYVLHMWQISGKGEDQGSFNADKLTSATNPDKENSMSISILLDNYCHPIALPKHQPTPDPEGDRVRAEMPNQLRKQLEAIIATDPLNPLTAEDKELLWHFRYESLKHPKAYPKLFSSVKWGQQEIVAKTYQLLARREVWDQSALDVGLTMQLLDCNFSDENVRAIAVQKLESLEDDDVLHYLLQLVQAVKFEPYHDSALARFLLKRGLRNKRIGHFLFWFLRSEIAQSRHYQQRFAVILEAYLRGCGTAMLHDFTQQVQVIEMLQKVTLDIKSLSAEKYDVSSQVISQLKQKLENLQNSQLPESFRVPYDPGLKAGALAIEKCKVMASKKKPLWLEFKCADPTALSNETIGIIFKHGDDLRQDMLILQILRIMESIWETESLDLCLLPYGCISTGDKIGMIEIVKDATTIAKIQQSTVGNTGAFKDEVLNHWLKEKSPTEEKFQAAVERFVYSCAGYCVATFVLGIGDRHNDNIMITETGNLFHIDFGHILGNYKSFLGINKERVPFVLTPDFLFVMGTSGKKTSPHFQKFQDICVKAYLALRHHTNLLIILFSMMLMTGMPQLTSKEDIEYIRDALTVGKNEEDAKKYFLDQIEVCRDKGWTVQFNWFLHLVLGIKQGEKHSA
Sequence of Activin receptor type-2A (Homo sapiens) (P27037 whole entry): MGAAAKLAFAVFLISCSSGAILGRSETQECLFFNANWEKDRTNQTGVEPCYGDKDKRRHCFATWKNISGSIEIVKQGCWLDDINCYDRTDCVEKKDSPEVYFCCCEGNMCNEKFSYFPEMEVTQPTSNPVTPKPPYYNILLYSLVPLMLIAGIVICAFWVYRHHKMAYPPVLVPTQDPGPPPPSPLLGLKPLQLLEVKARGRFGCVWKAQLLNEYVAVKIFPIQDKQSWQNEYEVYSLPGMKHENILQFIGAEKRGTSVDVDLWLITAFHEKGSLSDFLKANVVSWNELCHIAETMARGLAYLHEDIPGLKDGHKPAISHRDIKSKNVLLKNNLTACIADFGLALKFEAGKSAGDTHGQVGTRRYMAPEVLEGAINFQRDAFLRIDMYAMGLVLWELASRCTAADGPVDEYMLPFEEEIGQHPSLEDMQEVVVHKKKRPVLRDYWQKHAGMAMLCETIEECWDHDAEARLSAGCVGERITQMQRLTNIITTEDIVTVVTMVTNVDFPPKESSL
Sequence of Ribosomal protein S6 kinase alpha-6 (Homo sapiens) (Q9UK32 whole entry): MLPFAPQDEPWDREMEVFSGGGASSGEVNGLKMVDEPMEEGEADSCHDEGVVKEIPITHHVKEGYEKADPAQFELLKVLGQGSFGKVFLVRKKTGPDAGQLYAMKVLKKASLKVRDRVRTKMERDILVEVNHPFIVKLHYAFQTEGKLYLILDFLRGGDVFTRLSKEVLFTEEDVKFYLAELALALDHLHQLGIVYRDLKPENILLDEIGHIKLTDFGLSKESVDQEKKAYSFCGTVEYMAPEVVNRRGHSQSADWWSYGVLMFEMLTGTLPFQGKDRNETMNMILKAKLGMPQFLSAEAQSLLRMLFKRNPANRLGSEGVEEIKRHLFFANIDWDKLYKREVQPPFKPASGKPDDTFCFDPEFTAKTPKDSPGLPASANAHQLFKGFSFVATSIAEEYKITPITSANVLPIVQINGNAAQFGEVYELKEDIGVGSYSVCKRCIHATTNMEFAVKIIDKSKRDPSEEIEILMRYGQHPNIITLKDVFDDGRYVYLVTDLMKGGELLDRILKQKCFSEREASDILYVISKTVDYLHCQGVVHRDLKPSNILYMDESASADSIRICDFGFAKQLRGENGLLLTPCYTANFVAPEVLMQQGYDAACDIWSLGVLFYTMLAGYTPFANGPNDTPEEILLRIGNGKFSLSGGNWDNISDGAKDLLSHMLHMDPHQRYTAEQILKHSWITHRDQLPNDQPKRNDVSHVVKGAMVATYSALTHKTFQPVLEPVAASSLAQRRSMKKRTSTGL

With `N#CC1(c2ccccn2)CCN(Cc2cc(C(=O)O)c(=O)n3ccccc23)CC1` [MSD-M1PAM], the inhibition was -3% in data set [1]; -2% in the data set filed under Homo sapiens [2]; -5% in data set [3]; 1% in [4]; 7% on Caspase-1 (Homo sapiens); 13% in data set [5]. Further, the inhibition in [6] is 15%; in data set [7] it was 0%; in [8] it was 2%; in data set [9], 10%; in [10], 11%; in data set [11], 11%. In addition, the inhibition in data set [12] was 13%; in data set [13], 45%; in [14] it was 12%; in data set [15], 28%; in the data set filed under Rattus norvegicus [16], -4%; in the data set filed under Homo sapiens [17] it was -3%. Also, the inhibition in data set [18] is -6%; in the data set filed under Rattus norvegicus [19], 17%; in [28] it was 3.23%; in data set [29], -9%; in [30] it was -1%; in the data set filed under Rattus norvegicus [31], -4%. The inhibition in [32] was 0%. For the same compound, the inhibition at 75 min, 10 µM in [20] was 5% (not active). Further, the residual activity is 95% in data set [21]; 80% in data set [22]; 100% in data set [23]; 100% in data set [24]; 91% in [25]; 97% in data set [26]. Moreover, in [27], the residual activity was 100%.
`N#CC1(c2ccccn2)CCN(Cc2cc(C(=O)N3CCCC3)c(=O)n3ccccc23)CC1`: the residual activity is 78% in [21]; 85% in [22]; 100% in [23]; 85% in data set [24]; 75% in data set [25]; 91% in [26]. For the same compound, the residual activity in [27] was 100%. The inhibition in data set [28] is 5.44%.

Values taken from ChEMBL document CHEMBL4507295 (2021).
